The record followed here is US9682955B2, “Quinazoline derivatives useful as CB-1 inverse agonists” (Janssen Pharmaceutica NV, priority 2014, dated 2017).

The target of experiment [1] is Human CB2R (Cannabanoid receptor 2) (Homo sapiens (Human), UniProt P34972). The experiment is described as follows: CB-2 in vitro cAMP assay (HTRF). It counts as cell-based. Conditions: mean where tested more than once. From the text: (§1) CB1 and CB2 receptors are Gi-coupled GPCR. Activation of CB1 and CB2 receptors results in a decrease in cAMP production. An inverse agonist of the CB1 or CB2 receptor results in the opposite effect, an increase of cAMP production. The principle of this assay is based on HTRF® technology (Homogeneous Time-Resolved Fluorescence). The method is a competitive immunoassay between native cAMP produced by cells and the cAMP labeled with the fluorophore d2. The tracer binding is quantified by a Mab anti-cAMP labeled with Eu3+TBP-NHS Cryptate (supplied as part of the assay kit). The specific signal (i.e. energy transfer) is inversely proportional to the concentration of cAMP in the standard or sample.
Chain of Human CB2R (Cannabanoid receptor 2) (P34972 whole entry): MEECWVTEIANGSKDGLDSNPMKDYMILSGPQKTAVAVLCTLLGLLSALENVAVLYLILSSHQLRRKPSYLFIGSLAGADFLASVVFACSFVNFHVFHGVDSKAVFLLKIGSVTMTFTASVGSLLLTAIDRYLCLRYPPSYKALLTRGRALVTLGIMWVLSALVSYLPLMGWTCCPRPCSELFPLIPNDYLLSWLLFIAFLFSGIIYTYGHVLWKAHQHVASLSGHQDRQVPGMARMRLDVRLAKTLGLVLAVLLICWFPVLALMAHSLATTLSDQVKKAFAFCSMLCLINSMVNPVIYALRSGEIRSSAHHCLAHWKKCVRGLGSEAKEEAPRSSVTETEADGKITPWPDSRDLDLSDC
(§2) Human CB1R (Cannabanoid receptor 1) was stably transfected in HEK-293 cells (DiscoveRx, cat: 93-0200C1). Human CB2R (Cannabanoid receptor 2) was stably transfected in HEK-293 cells (DiscoveRx, cat: 93-0201C1). Cell cultures were maintained in media: DMEM (Invitrogen Cat#12430-054) supplemented with 10% HI FBS (Invitrogen Cat#16140-071), 1% L-glutamine (Invitrogen Cat#25030-081), 0.2 mg/ml Hygromycin B (Invitrogen Cat#10687-010), 600 μg/mL G418 (Invitrogen Cat#10131-035), and 1× Penn/Strep (Invitrogen 15140-122). After cell expansion, aliquots were cryo-stored in media containing 5% DMSO (Pierce Cat#20684).
(§3) One day prior to experiments media was warmed to 37° C. and the cryo-stored cells were thawed in a 37° C. water bath. The cells were then added to media (10× volume) and the mixture was centrifugated at 1000 RPM for 5 min. The supernate was removed and the cells were re-suspended in media. A sample of the cell suspension was evaluated on a Cedex XS automated cell counter (Innovatis Systems) to determine viable cells/ml. Additional media was added to the cells to achieve a final cell density of 4E5 cells/mL. The cells were then plated into 384 well PDL white solid bottom plates (Greiner, Cat#781945) at 20 μL per well using a Multidrop (Thermo Scientific). Cells were removed from Row P (location of cAMP standards). Two columns of cells were plated into a clear bottom 384 well PDL coated plate (Greiner, Cat#781944) to view confluence the day of the assay. The cell plates were lidded and stored for 15 minutes in a hood, then transferred to an incubator (37° C., 5% CO2, 95% humidity) overnight.
(§4) DMSO was added to all wells of 384 well V bottom polystyrene plate (Greiner, Cat#781280) except to columns 1 and 13, rows O and P and wells M13-M23 and N13-N23. Test compounds (60 μL, 10 mM) were added to Column 1 and 13 (A1 through N1 and A13 through L13). Test compounds were serially diluted 1/3 by transferring and mixing 20 μl sample with 40 μL DMSO.
(§5) DMSO (40 μL) was added to wells of 384 well V bottom polystyrene plate: O2 through O11, M14 through M23, N14 through N23, and O14 through O23. AM630 (also known as [6-iodo-2-methyl-1-[2-(4-morpholinyl)ethyl]-1H-indol-3-yl](4-methoxyphenyl)-methanone, Cayman Chemical, Cat#10006974) (60 μL, 10 mM) was added to O1; and 1-(2,4-dichlorophenyl)-7-[(4-fluorophenyl)methylene]-4,5,6,7-tetrahydro-N-1-piperidinyl-1H-indazole-3-carboxamide (60 μL, 10 mM) was added to N13. The control was serially diluted 1/3 by transferring and mixing 20 μl sample with 40 μL DMSO. This process resulted 11 doses per control, 10 mM to […].
(§6) Cells plated the day prior to the assay in clear bottom plates were viewed on an inverse microscope to ensure confluency in the range of 60-75%. […]
On the technique in general: Changes in cAMP serve as a functional read-out for many G protein-coupled receptors.

Experiment [2] concerns the target Human CB1R (Cannabanoid receptor 1) (Homo sapiens (Human), UniProt P21554). Briefly: CB-1 in vitro cAMP assay (HTRF). It counts as cell-based. The following applies: mean where tested more than once.
Description: as §1, §2, §3, §4, §5, §6

Each structure is given as a SMILES string.

As a reminder, the EC50 is the midpoint of the concentration-response curve.

Chain of Human CB1R (Cannabanoid receptor 1) (P21554 whole entry): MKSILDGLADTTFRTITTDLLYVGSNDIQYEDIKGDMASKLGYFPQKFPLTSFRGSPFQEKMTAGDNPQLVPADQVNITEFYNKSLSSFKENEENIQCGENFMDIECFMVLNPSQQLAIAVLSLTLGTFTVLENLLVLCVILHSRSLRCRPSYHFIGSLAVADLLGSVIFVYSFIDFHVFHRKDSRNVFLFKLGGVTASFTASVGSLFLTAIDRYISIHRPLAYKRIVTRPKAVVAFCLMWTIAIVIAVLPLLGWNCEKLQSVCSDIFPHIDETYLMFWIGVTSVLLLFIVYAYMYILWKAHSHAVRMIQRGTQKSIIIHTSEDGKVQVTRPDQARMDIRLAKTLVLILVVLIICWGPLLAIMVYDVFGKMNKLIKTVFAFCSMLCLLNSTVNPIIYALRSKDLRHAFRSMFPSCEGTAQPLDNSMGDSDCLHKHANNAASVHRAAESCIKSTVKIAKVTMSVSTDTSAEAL

With `O=C(O)c1cccc(CNc2ncnc3ccc(C(c4ccc(Cl)cc4)c4ccc(Cl)cc4)cc23)c1` [Compound #59, 3-(((6-(bis(4-chlorophenyl)methyl)quinazolin-4-yl)amino)methyl)benzoic acid], the concentration giving a half-maximal response (EC50) in experiment [1] is more than 10000 nM; in experiment [2], 4430 nM.
The like results for `COC(=O)c1cccc(CNc2ncnc3ccc(C(c4ccc(Cl)cc4)c4ccc(Cl)cc4)cc23)c1` [Compound #62, Methyl 3-(((6-(bis(4-chlorophenyl)methyl)quinazolin-4-yl)amino)methyl)benzoate] were, in that order, 8080 nM and 14 nM.
The like results for `CC(C)OC(=O)OCOC(=O)c1ccc(S(=O)(=O)N2CCC(Nc3ncnc4ccc(C(c5ccc(Cl)cc5)c5ccc(Cl)cc5)cc34)CC2)cc1` [Compound #64, ((Isopropoxycarbonyl)oxy)methyl 4-((4-((6-(bis(4-chlorophenyl)methyl)quinazolin-4-yl)amino)piperidin-1-yl)sulfonyl)benzoate] were, in that order, more than 10000 nM and 15 nM.
The like results for `NC(=O)CCCOc1nc(NCc2ccc(C(F)(F)F)cc2)c2cc(C(c3ccc(Cl)cc3)c3ccc(Cl)cc3)ccc2n1` [Compound #66, 4-((6-(bis(4-chlorophenyl)methyl)-4-((4-(trifluoromethyl)benzyl)amino)quinazolin-2-yl)oxy)butanamide] were, in that order, 845 nM and 8 nM.
On to `Fc1ccc(C(c2ccc(F)cc2)c2ccc3ncnc(NC4CCN(c5ccccc5)CC4)c3c2)cc1` [Compound #67, 6-(bis(4-fluorophenyl)methyl)-N-(1-phenylpiperidin-4-yl)quinazolin-4-amine], for which the EC50 in experiment [1] is 1150 nM; in experiment [2] it was 1 nM.
The like results for `O=C(O)c1ccc(C(=O)N2CCC(Nc3ncnc4ccc(C(c5ccc(Cl)cc5)c5ccc(Cl)cc5)cc34)CC2)cc1` [Compound #68, 4-(4-((6-(bis(4-chlorophenyl)methyl)quinazolin-4-yl)amino)piperidine-1-carbonyl)benzoic acid] were, in that order, more than 10000 nM and 950 nM.
On to `CC(=O)NCCOc1nc(NCc2ccc(C(F)(F)F)cc2)c2cc(C(c3ccc(Cl)cc3)c3ccc(Cl)cc3)ccc2n1` [Compound #69, N-(2-((6-(bis(4-chlorophenyl)methyl)-4-((4-(trifluoromethyl)benzyl)amino)quinazolin-2-yl)oxy)ethyl)acetamide], for which the EC50 in experiment [1] is more than 10000 nM; in experiment [2], 98 nM.
Consider `OCCCCOc1nc(NCc2ccc(C(F)(F)F)cc2)c2cc(C(c3ccc(Cl)cc3)c3ccc(Cl)cc3)ccc2n1` [Compound #71, 4-((6-(bis(4-chlorophenyl)methyl)-4-((4-(trifluoromethyl)benzyl)amino)quinazolin-2-yl)oxy)butan-1-ol], for which the values for the EC50 in experiment [1] and in experiment [2] were more than 10000 nM and 19 nM, respectively.
The like results for `NCCOc1nc(NCc2ccc(C(F)(F)F)cc2)c2cc(C(c3ccc(Cl)cc3)c3ccc(Cl)cc3)ccc2n1` [Compound #72, 2-(2-aminoethoxy)-6-(bis(4-chlorophenyl)methyl)-N-(4-(trifluoromethyl)benzyl)quinazolin-4-amine] were, in that order, more than 10000 nM and 51 nM.
The like results for `COC(=O)c1ccc(C(=O)N2CCC(Nc3ncnc4ccc(C(c5ccc(Cl)cc5)c5ccc(Cl)cc5)cc34)CC2)cc1` [Compound #73, methyl 4-(4-((6-(bis(4-chlorophenyl)methyl)quinazolin-4-yl)amino)piperidine-1-carbonyl)benzoate] were, in that order, 4430 nM and 14 nM.
For `NC(=O)Cc1ccc(N2CCC(Nc3ncnc4ccc(C(c5ccc(Cl)cc5)c5ccc(Cl)cc5)cc34)CC2)cc1` [Compound #74, 2-(4-(4-((6-(bis(4-chlorophenyl)methyl)quinazolin-4-yl)amino)piperidin-1-yl)phenyl)acetamide] the same measures were 178 nM and 82 nM.
Turning to `[N-]=[N+]=NCCOc1nc(NCc2ccc(C(F)(F)F)cc2)c2cc(C(c3ccc(Cl)cc3)c3ccc(Cl)cc3)ccc2n1` [Compound #75, 2-(2-azidoethoxy)-6-(bis(4-chlorophenyl)methyl)-N-(4-(trifluoromethyl)benzyl)quinazolin-4-amine], the results for the EC50 in experiment [1] and in experiment [2] were more than 10000 nM and 5 nM, respectively.
The like results for `O=S(=O)(CCO)N1CCC(Nc2ncnc3ccc(C(c4ccc(Cl)cc4)c4ccc(Cl)cc4)cc23)CC1` [Compound #78, 2-((4-((6-(bis(4-chlorophenyl)methyl)quinazolin-4-yl)amino)piperidin-1-yl)sulfonyl)ethanol] were, in that order, 9400 nM and 16 nM.
For `COC(=O)Cc1ccc(N2CCC(Nc3ncnc4ccc(C(c5ccc(Cl)cc5)c5ccc(Cl)cc5)cc34)CC2)cc1` [Compound #79, Methyl 2-(4-(4-((6-(bis(4-chlorophenyl)methyl)quinazolin-4-yl)amino)piperidin-1-yl)phenyl)acetate] the same measures were 173 nM and 4 nM.
Take `CCOC(=O)CCC(=O)N1CCC(Nc2ncnc3ccc(C(c4ccc(Cl)cc4)c4ccc(Cl)cc4)cc23)CC1` [Compound #81, Ethyl 4-(4-((6-(bis(4-chlorophenyl)methyl)quinazolin-4-yl)amino)piperidin-1-yl)-4-oxobutanoate]: the EC50 in experiment [1] is 452 nM; in experiment [2] it was 2 nM.
The like results for `O=C(NCCO)c1ccc(N2CCC(Nc3ncnc4ccc(C(c5ccc(Cl)cc5)c5ccc(Cl)cc5)cc34)CC2)cc1` [Compound #84, 4-(4-((6-(bis(4-chlorophenyl)methyl)quinazolin-4-yl)amino)piperidin-1-yl)-N-(2-hydroxyethyl)benzamide] were, in that order, 326 nM and 26 nM.
Consider `COc1nc(NCc2ccc(C(F)(F)F)cc2)c2cc(C(c3ccc(Cl)cc3)c3ccc(Cl)cc3)ccc2n1` [Compound #85, 6-(bis(4-chlorophenyl)methyl)-2-methoxy-N-(4-(trifluoromethyl)benzyl)quinazolin-4-amine], for which the EC50 was more than 10000 nM in experiment [1] and 10 nM in experiment [2].
Consider `NC(=O)CCC(=O)N1CCC(Nc2ncnc3ccc(C(c4ccc(Cl)cc4)c4ccc(Cl)cc4)cc23)CC1` [Compound #86, 4-(4-((6-(bis(4-chlorophenyl)methyl)quinazolin-4-yl)amino)piperidin-1-yl)-4-oxobutanamide], for which the EC50 turned out to be 9000 nM in experiment [1] and 2460 nM in experiment [2].
The like results for `NC(=O)c1ccc(N2CCC(Nc3ncnc4ccc(C(c5ccc(Cl)cc5)c5ccc(Cl)cc5)cc34)CC2)cc1` [Compound #90, 4-(4-((6-(bis(4-chlorophenyl)methyl)quinazolin-4-yl)amino)piperidin-1-yl)benzamide] were, in that order, 461 nM and 34 nM.
Regarding `COCCOc1nc(NCc2ccc(C(F)(F)F)cc2)c2cc(C(c3ccc(Cl)cc3)c3ccc(Cl)cc3)ccc2n1` [Compound #91, 6-(bis(4-chlorophenyl)methyl)-2-(2-methoxyethoxy)-N-(4-(trifluoromethyl)benzyl)quinazolin-4-amine], the EC50 in experiment [1] was more than 10000 nM; in experiment [2], 30 nM.
The like results for `O=C(O)c1ccc(N2CCC(Nc3ncnc4ccc(C(c5ccc(Cl)cc5)c5ccc(Cl)cc5)cc34)CC2)cc1` [Compound #92, 4-(4-((6-(bis(4-chlorophenyl)methyl)quinazolin-4-yl)amino)piperidin-1-yl)benzoic acid] were, in that order, 195 nM and 695 nM.
